Measured values published in US4049695A, “3-((3-Trifluoromethyl)phenyl)sulfonyl)-2-propenenitrile” (The Dow Chemical Company, priority 1976, dated 1977).
≈ marks a conversion by molar mass, not a printed value.

Columns and labels:
Experiment in all cases: in vitro agar Petri dish dilution test
Format in all cases: cell-based
C. pelliculosa = details: Hansenula anomala, 100% inhibition, read-out: Minimum Inhibitory Concentration
Text: (§1) The inventive product has antimicrobial activity. In the conventional in vitro agar Petri dish dilution test for determining bactericidal and fungicidal activity, the compound gave 100% inhibition against the indicated organisms at the following concentrations in parts per million, the tabulated values being indicated as minimum inhibitory concentrations (MIC).

[1] = tested on: K. pneumoniae M-1 Midland Hospital; details: Klebsiella pneumoniae, 100% inhibition, read-out: Minimum Inhibitory Concentration
Text: as §1

T. mentagrophytes = details: Trichophyton mentagrophytes, 100% inhibition, read-out: Minimum Inhibitory Concentration
Text: as §1

[2] = tested on: Trichoderm Sp. Madison P-42; details: 100% inhibition, read-out: Minimum Inhibitory Concentration
Text: as §1

[3] = tested on: Pseudomonas Sp. Strain 10; details: 100% inhibition, read-out: Minimum Inhibitory Concentration
Text: as §1

A. fumigatus = details: Aspergillus fumigatus, 100% inhibition, read-out: Minimum Inhibitory Concentration
Text: as §1

S. marcescens NIH = details: Serratia marcescens, 100% inhibition, read-out: Minimum Inhibitory Concentration
Text: as §1

P. pullulans = details: 100% inhibition, read-out: Minimum Inhibitory Concentration
Text: as §1

C. albicansNIH = details: Candida albicans, 100% inhibition, read-out: Minimum Inhibitory Concentration
Text: as §1

P. chrysogenum = details: Penicillium chrysogenum, 100% inhibition, read-out: Minimum Inhibitory Concentration
Text: as §1

C. ips = details: 100% inhibition, read-out: Minimum Inhibitory Concentration
Text: as §1

S. aureus = details: Staphylococcus aureus, 100% inhibition, read-out: Minimum Inhibitory Concentration
Text: as §1

Torulopsis Species = details: 100% inhibition, read-out: Minimum Inhibitory Concentration
Text: as §1

B. subtilis = details: Bacillus subtilis, 100% inhibition, read-out: Minimum Inhibitory Concentration
Text: as §1

A. niger = details: Aspergillus niger, 100% inhibition, read-out: Minimum Inhibitory Concentration
Text: as §1

E. coli ATCC 11229 = details: Escherichia coli, ATCC11229, 100% inhibition, read-out: Minimum Inhibitory Concentration
Text: as §1

S. typhosa = details: 100% inhibition, read-out: Minimum Inhibitory Concentration
Text: as §1

C. albicans = details: Candida albicans, 100% inhibition, read-out: Minimum Inhibitory Concentration
Text: as §1

N#CC=CS(=O)(=O)c1cccc(C(F)(F)F)c1 [3-((3-(Trifluoromethyl)phenyl)sulfonyl)-2-propenenitrile]
MIC (C. pelliculosa): 10 µg/mL (≈ 38.3 µM)
MIC [1]: 50 µg/mL (≈ 191 µM)
MIC (T. mentagrophytes): 10 µg/mL (≈ 38.3 µM)
MIC [2]: 50 µg/mL (≈ 191 µM)
MIC [3]: 100 µg/mL (≈ 383 µM)
MIC (A. fumigatus): 50 µg/mL (≈ 191 µM)
MIC (S. marcescens NIH): 50 µg/mL (≈ 191 µM)
MIC (P. pullulans): 50 µg/mL (≈ 191 µM)
MIC (C. albicansNIH): 50 µg/mL (≈ 191 µM)
MIC (P. chrysogenum): 50 µg/mL (≈ 191 µM)
MIC (C. ips): 10 µg/mL (≈ 38.3 µM)
MIC (S. aureus): 5 µg/mL (≈ 19.1 µM)
MIC (Torulopsis Species): 50 µg/mL (≈ 191 µM)
MIC (B. subtilis): 5 µg/mL (≈ 19.1 µM)
MIC (A. niger): 50 µg/mL (≈ 191 µM)
MIC (E. coli ATCC 11229): 50 µg/mL (≈ 191 µM)
MIC (S. typhosa): 5 µg/mL (≈ 19.1 µM)
MIC (C. albicans): 50 µg/mL (≈ 191 µM)
